Laboratory results as given in patent publication US10675331B2, “Method for achieving desired glial growth factor 2 plasma levels” (priority 2008, dated 2020).
pIC50: −log10 of the molar value. “Also recorded” adds a separate entry of the source.

Key:
[1] = tested on: advanced colorectal, NSCLC, breast, and pancreatic cancer; details: 67 patients; cited from earlier work
[2] = Phase I studies; cited from earlier work
MAP kinase-kinase = details: many assays; read-out: IC50 values for PD 98059-induced effects; cited from earlier work
melanoma = details: cited from earlier work
[3] = in vivo; cited from earlier work
MEK-1 and MEK-2 = details: cited from earlier work
c-Jun = c-Jun expression in co-culture lysates, Western blot; assay type: cell-based, rat; details: GGF+U0126, 11 days
Source text: Control cultures were maintained without any treatment (NT). Scale bar: 100 μm. […] Error bars indicate±SE (p<0.001). […] Actin level served as a loading control.

Krox20 = details: U0126 treatment, 11 days
Method: Schwann cell-DRG co-cultures were pre-treated with U0126 for 30 minutes then GGF (0.6 nM) was added in the continuous presence of U0126. After 45 minutes the cell lysates were prepared and level of p-Erk and p-Akt were determined. […] Control cultures were maintained without any treatment (NT). […] Co-cultures were treated with increasing concentration of U0126 (0.5, 1 and 3 nM) under myelinating condition and 11 days later, myelination was analyzed as above. […] Co-cultures were maintained under myelinating condition in the presence of GGF or GGF+U0126 (0.5, 1 and 3 nM) for 11 days and the cell lysates were analyzed for MBP, c-Jun and Krox 20 expression. Actin level served as a loading control.
(§1) To prepare cell lysates, 90-95% confluent rat Schwann cells on 60 mm plates or co-cultures were washed twice in phosphate-buffered saline (PBS) and then lysed in 300 μl ice-cold lysis buffer (50 mM Tris HCl pH 7.4, 1% NP-40, 0.25% Sodium Deoxycholate, 150 mM NaCl, 1 mM EGTA, 10 μg/ml Leupeptin, 2 μg/ml Aprotinin, 1 mM PMSF and 0.5 mM sodium orthovanadate). Lysates were cleared by centrifugation for 15 min at 14,000 rpm in the cold and the protein concentration of the supernatants was determined according to manufacturer specifications (Bio-Rad: Hercules, Calif.). […]

P0 = details: U0126 treated cultures
Akt = Akt (PI3-kinase pathway) activation in Schwann cell-DRG co-cultures, Western blot; assay type: cell-based, rat; details: U0126 with GGF2
Method: (§2) Monoclonal antibody to phosphorylated Akt and polyclonal antibody to phosphorylated MAPK were purchased from Cell Signaling and were used at dilutions of 1:1000 and 1:500, respectively. Polyclonal antibodies to Akt and MAPK (Promega) were used at dilutions of 1:1000 and 1:5000, respectively.
as §1
(§3) To assess the possibility that the inhibitory effect of GGF2 on myelination could be due to its ability to induce a robust MAPK activation in Schwann cells, the present inventors used a well-established in vitro myelinating culture system in which Schwann cells are co-cultured with dorsal root ganglion (DRG) neurons and induced to myelinate the associated axons by addition of ascorbic acid to the culture media. […] Twenty minutes later, cell lysates were prepared and MAPK activation was determined by Western blot analysis. […]

MAPK = MAPK (Erk) activation in Schwann cell-DRG co-cultures, Western blot; assay type: cell-based, rat
Method: as §2
To prepare cell lysates, 90-95% confluent rat Schwann cells on 60 mm plates or co-cultures were washed twice in phosphate-buffered saline (PBS) and then lysed in 300 μl ice-cold lysis buffer (50 mM Tris HCl pH 7.4, 1% NP-40, 0.25% Sodium Deoxycholate, 150 mM NaCl, 1 mM EGTA, 10 μg/ml Leupeptin, 2 μg/ml Aprotinin, 1 mM PMSF and 0.5 mM sodium orthovanadate). Lysates were cleared by centrifugation for 15 min at 14,000 rpm in the cold and the protein concentration of the supernatants was determined according to manufacturer specifications (Bio-Rad: Hercules, Calif.). For Western blot analysis, 50-70 μg of Schwann cell lysates were size-fractionated on 10% SDS-polyacrylamide gels and transferred onto PVDF membranes. After blocking in 5% milk, the membranes were incubated with appropriate primary antibodies prepared in blocking solution. After incubating with horseradish peroxidase conjugated secondary antibodies, the protein bands were visualized by enhanced chemiluminescence. For immunoprecipitation, 500 μg of Schwann cell lysates were incubated with 0.6 μg of primary antibody for 3 hours at 4° C., then incubated with 50 μl Sepharose A beads for 1 hour. […]
as §3

[4] = tested on: Schwann cell-DRG neuron co-cultures; assay: Myelination in Schwann cell-DRG neuron co-cultures, MBP immunostaining; assay type: cell-based, rat
Method: Schwalm cells were prepared from sciatic nerves of newborn rats (1-2 day old) as described previously (Brookes et al., Brain Res. 1979; 165:105-118). For routine culture, Schwann cells were grown in. Dulbecco's modified Eagle's medium (DMEM) with 10% fetal bovine serum (FBS) supplemented with EGF-domain neuregulin-1 (R&D Systems) (10 ng/ml) and Forskolin (2 μM). Cells between passage 2-4 were used in all experiments described in the text.
Dissociated DRG were prepared from embryonic day 14.5 rat embryos as described previously (Eldridge et al., J Cell Biol. 1987; 105(2):1023-34) and plated onto collagen (type-1 rat tail collagen,)-coated 12 mm glass coverslips at a density of 1.25 DRG/coverslip. Five to six hours later, the cultures were flooded with neurobasal medium (Cellgro,) supplemented with B27 (GIBCO), 20% glucose, NGF (50 ng/ml) and 5-fluorodeoxyuridine (FUdR, 10 μM) and maintained in the medium for additional 2-3 days in order to remove proliferating non-neuronal cells. Cultures were then switched to fresh medium without FUdR and maintained until the DRG axons reached the periphery of the coverslips. After the axonal networks were established, Schwann cells were plated onto the neurons at a density of 100,000 cells/coverslip. […] Ten to eleven days later, myelination was assessed by immunostaining for MBP. […]

metastatic breast cancer = details: less in the intermittent dosing group than the continuous; cited from earlier work
advanced kidney cancer = details: cited from earlier work
[5] = patients who received sorafenib

## O=C(NOCC1CC1)c1ccc(F)c(F)c1Nc1ccc(I)cc1Cl [CI-1040]
[1]
  responses: no responses
  tolerability: well tolerated
[2]
  side effects: mild gastrointestinal and skin side effects

## COc1cccc(-c2cc(=O)c3ccccc3o2)c1N [PD 98059]
MAP kinase-kinase
  pIC50: 4.70 to 6.00

## O=C(NOC[C@H](O)CO)c1ccc(F)c(F)c1Nc1ccc(I)cc1F [PD 0325901]
melanoma; human, in vivo
  response in melanoma patients: some partial response
melanoma; oral
  dose at which ocular and neurological toxicity presented: ≥ 10 mg twice-a-day

## N#C/C(=C(/N)Sc1ccc(N)cc1)c1ccccc1C(F)(F)F [SL 327]
[3]
  brain penetration: brain penetrant

## N#CC(=C(/N)Sc1ccccc1N)/C(C#N)=C(\N)Sc1ccccc1N [U0126]
MEK-1 and MEK-2
  higher potency than PD 98059: 100 fold
c-Jun
  GGF-induced c-Jun expression: down-regulating
Krox20
  Krox20 expression: increase in Krox20 expression
P0
  P0 expression: increase in P0 expression
Akt
  effect on GGF2-induced PI3-kinase / Akt activation: no effect
MAPK; U0126 1 μM, 30 minutes pretreatment, GGF2 0.6 nM
  level of GGF2-induced MAPK activation: reduced to the basal level
MAPK; U0126 10 μM, 30 minutes pretreatment, GGF2 0.6 nM
  MAPK activation in the co-culture: completely abolished
MAPK; increasing concentrations of U0126, FIG. 3B
  GGF2-induced Erk activation: inhibited GGF2-induced Erk activation in a dosage-dependent manner
[4]; U0126 in the absence of GGF2, FIG. 3E
  level of myelination: increase in the level of myelination
[4]; co-treated with GGF2 and U0126, ten to eleven days
  myelination in GGF2-treated co-cultures: dose-dependent increase in myelination; also recorded: the inhibitory effect of GGF2 was reversed

## Cn1cncc1[C@@](N)(c1ccc(Cl)cc1)c1ccc2c(c1)c(-c1cccc(Cl)c1)cc(=O)n2C [Zarnestra, tipifarnib]
Metastatic breast cancer
  major side effects observed: bone marrow suppression and neuropathy

## CNC(=O)c1cc(Oc2ccc(NC(=O)Nc3ccc(Cl)c(C(F)(F)F)c3)cc2)ccn1 [sorafenib, Sorafenib]
Advanced kidney cancer; 768 patients
  most common side effects: hypertension, fatigue, diarrhea, and rash
  tolerability: very well tolerated
Advanced kidney cancer; 769 analyzed patients
  progression-free survival (PFS), median: 24 weeks
Advanced kidney cancer; in vivo
  12-week progression-free rate: 79%
Advanced kidney cancer; [5]
  disease control: 80%
  partial response: 2%
  stable disease: 78%
